Assay results reported in patent publication EP0496617B1, “Adenosine kinase inhibitors” (priority 1991, dated 1992).

Legend:
[1] = tested on: human umbillical vein endothelial cells; assay: Inhibition of neutrophil adherence to endothelial cells; format: cell-based; settings: fMLP-stimulated human neutrophils, 2 hours at 37°C; reversed by adenosine deaminase; Figure 2
Description: The ability of an adenosine kinase inhibitor to affect neutrophil adherence to fibroblasts and endothelial cells was evaluated in a cell culture model.
These incubations were carried out in the presence of fMLP-stimulated human neutrophils isolated from whole blood (1.25 x 10^6/ml) with or without adenosine deaminase (0.125 U/ml). At the end of the incubation, the medium was removed and the monolayers of fibroblasts or endothelial cells and adherent neutrophils were fixed by addition of formaldehyde (3.7%) and, after washing to remove non-adherent neutrophils, adherent neutrophils were stained with Weigart's hematoxylin and counted under a light microscope.

Male Swiss Webster mice = assay: PTZ-induced seizures; format: in vivo; settings: IP at doses of 1, 5 and 10 mg/kg, 45 minutes before PTZ; Figure 4 A
Description: The ability of selected adenosine kinase inhibitors to influence PTZ-induced seizures was evaluated in an experimental animal model.
[…] After injections of the convulsant, animals were isolated in separate cages and observed for the onset of seizure.

rats = assay: Electroshock-induced seizures; format: in vivo; settings: for No. of Animals (protected/tested): 1 hour before electroshock
Description: The ability of the adenosine kinase inhibitors to influence electroshock-induced seizures was also evaluated in an experimental model.
After 1 hour, corneal electrodes were applied to the eyes of each animal and an electrical stimulus of 160 mA delivered for 0.2 seconds. Animals were isolated in separate cages and observed for seizure. Abolition of the hindleg tonic extensor component is taken as the end point for this test and reflects ability of the compound to prevent seizure spread.

rat brain slices = settings: cited from earlier work
guinea pig brain slices = settings: cited from earlier work
mice = settings: cited from earlier work
anesthetized rats = settings: cited from earlier work
isolated rat hearts = settings: perfused with the compound alone; normoxic, hypoxic, anoxic or ischemic conditions; cited from earlier work
dog hearts = settings: cited from earlier work
rat cardiomyocytes = settings: inhibition of ADA together with adenosine kinase; cited from earlier work
[2] = tested on: Isolated guinea pig hearts; settings: added to the perfusion medium in the presence of EHNA; cited from earlier work

SMILES: C[C@H]1O[C@@H](n2cc(I)c3c(N)ncnc32)[C@H](O)[C@@H]1O [GP-1-456, 5'-deoxy-5-iodotubercidin]
- neutrophil adhesion to endothelial cells [1]: inhibit neutrophil adhesion to endothelial cells
- PTZ induced seizures (Male Swiss Webster mice): dose-dependent inhibition
- No. of Animals (protected/tested) (rats; 0.05 mg/kg orally): 1/8
- No. of Animals (protected/tested) (rats; 0.10 mg/kg orally): 2/8
- ED50 (rats; Rattus norvegicus, po, 1 h, orally, rats, from the data of Table E, read-out: ED50 for protection of electroshock-induced seizures): 0.18 mg/kg
- adenosine uptake (rat brain slices): inhibited
- adenosine uptake (guinea pig brain slices): inhibited
- body temperature (mice): hypothermia
- flaccidity and spontaneous locomotor activity (mice): pronounced general flaccidity and much-reduced spontaneous locomotor activity
- blood pressure and heart rate (anesthetized rats): decrease blood pressure and heart rate

SMILES: Nc1ncnc2c1c(I)cn2[C@@H]1O[C@H](CO)[C@@H](O)[C@H]1O [5-iodotubercidin, reference compound]
- perfusate adenosine concentration (isolated rat hearts): no increase in perfusate adenosine concentration
- adenosine uptake (rat brain slices): inhibited
- adenosine uptake (guinea pig brain slices): inhibited
- effects in ischemia and reperfusion (dog hearts): inconsistent effects
- body temperature (mice): hypothermia
- flaccidity and spontaneous locomotor activity (mice): pronounced general flaccidity and much-reduced spontaneous locomotor activity
- blood pressure and heart rate (anesthetized rats): decrease blood pressure and heart rate

SMILES: NC[C@H]1O[C@@H](n2cnc3c(N)ncnc32)[C@H](O)[C@@H]1O [GP-1-238, 5'-amino-5'-deoxyadenosine]
- increase in adenosine release (rat cardiomyocytes): 6 fold
- increase of adenosine release [2]: 15 fold
